Measurements as given in the supplement of paper PMC12463676, “Small-molecule dissolution of stress granules by redox modulation benefits ALS models” (Nature Chemical Biology, 2025).

Tests used:
lipoamide = compound: NC(=O)CCCCC1CCSS1 [lipoamide]; assay: thermal stability z-score vs DMSO; higher = more thermally stabilized by treatment; settings: HeLa, lipoamide concentration 100 µM
Description: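 Cellular thermal proteome profiling in HeLa cells. Cells were treated with 100 µM lipoamide for 1 h, with or without 1 mM arsenate for a further 1 h, then heated to ten temperatures (37-66.3 °C), and soluble protein was quantified by TMT mass spectrometry relative to 0.1% DMSO controls. The thermal stability score (sum of log2 fold changes minus the abundance score) was transformed to a z-score; mean of n = 3 experiments.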

potassium arsenate = compound: O=[As]([O-])(O)O.[K+] [potassium arsenate]; assay: as above; settings: HeLa; arsenate concentration 1 mM
Description: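 Cellular thermal proteome profiling in HeLa cells treated with 1 mM arsenate for 1 h (DMSO pretreatment), heated to ten temperatures (37-66.3 °C). Soluble protein was quantified by TMT mass spectrometry relative to DMSO controls; the thermal stability score was transformed to a z-score; mean of n = 3 experiments.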

[1] = arsenate co-treatment: 1 mM arsenate 1 h
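Note: each temperature applied for 3 min, abundance score taken as mean log2 fold change at the two lowest temperatures, z-score obtained by mean subtraction and division by SD.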

Sequence of UniProt P55081 (P55081 whole entry): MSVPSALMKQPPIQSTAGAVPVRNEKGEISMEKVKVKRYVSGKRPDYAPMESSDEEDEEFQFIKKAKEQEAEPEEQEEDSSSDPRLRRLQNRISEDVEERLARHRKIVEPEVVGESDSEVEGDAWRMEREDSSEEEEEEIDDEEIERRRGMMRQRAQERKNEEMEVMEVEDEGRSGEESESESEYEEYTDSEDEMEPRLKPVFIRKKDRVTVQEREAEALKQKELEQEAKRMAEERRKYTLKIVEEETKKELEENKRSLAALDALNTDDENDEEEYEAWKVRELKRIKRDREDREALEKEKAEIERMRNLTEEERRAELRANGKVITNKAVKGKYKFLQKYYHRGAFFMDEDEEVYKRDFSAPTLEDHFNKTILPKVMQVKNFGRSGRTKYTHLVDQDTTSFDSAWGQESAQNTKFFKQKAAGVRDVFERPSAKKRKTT
Sequence of UniProt Q86W50 (Q86W50 whole entry): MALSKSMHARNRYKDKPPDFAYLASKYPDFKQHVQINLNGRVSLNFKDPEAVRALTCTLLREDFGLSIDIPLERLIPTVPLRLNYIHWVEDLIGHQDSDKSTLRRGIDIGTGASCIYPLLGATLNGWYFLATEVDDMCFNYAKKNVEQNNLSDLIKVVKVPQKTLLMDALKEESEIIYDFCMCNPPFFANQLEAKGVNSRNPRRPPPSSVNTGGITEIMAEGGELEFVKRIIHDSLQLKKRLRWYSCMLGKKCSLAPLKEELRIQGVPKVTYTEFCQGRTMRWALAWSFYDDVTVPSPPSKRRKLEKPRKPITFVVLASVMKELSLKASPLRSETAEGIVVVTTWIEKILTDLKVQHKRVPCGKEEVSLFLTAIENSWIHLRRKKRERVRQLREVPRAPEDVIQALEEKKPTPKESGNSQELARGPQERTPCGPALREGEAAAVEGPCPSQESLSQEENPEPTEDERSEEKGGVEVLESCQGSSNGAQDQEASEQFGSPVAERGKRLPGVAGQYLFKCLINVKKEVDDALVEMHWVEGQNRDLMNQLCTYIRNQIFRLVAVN
Sequence of UniProt Q5JRA6 (Q5JRA6 whole entry): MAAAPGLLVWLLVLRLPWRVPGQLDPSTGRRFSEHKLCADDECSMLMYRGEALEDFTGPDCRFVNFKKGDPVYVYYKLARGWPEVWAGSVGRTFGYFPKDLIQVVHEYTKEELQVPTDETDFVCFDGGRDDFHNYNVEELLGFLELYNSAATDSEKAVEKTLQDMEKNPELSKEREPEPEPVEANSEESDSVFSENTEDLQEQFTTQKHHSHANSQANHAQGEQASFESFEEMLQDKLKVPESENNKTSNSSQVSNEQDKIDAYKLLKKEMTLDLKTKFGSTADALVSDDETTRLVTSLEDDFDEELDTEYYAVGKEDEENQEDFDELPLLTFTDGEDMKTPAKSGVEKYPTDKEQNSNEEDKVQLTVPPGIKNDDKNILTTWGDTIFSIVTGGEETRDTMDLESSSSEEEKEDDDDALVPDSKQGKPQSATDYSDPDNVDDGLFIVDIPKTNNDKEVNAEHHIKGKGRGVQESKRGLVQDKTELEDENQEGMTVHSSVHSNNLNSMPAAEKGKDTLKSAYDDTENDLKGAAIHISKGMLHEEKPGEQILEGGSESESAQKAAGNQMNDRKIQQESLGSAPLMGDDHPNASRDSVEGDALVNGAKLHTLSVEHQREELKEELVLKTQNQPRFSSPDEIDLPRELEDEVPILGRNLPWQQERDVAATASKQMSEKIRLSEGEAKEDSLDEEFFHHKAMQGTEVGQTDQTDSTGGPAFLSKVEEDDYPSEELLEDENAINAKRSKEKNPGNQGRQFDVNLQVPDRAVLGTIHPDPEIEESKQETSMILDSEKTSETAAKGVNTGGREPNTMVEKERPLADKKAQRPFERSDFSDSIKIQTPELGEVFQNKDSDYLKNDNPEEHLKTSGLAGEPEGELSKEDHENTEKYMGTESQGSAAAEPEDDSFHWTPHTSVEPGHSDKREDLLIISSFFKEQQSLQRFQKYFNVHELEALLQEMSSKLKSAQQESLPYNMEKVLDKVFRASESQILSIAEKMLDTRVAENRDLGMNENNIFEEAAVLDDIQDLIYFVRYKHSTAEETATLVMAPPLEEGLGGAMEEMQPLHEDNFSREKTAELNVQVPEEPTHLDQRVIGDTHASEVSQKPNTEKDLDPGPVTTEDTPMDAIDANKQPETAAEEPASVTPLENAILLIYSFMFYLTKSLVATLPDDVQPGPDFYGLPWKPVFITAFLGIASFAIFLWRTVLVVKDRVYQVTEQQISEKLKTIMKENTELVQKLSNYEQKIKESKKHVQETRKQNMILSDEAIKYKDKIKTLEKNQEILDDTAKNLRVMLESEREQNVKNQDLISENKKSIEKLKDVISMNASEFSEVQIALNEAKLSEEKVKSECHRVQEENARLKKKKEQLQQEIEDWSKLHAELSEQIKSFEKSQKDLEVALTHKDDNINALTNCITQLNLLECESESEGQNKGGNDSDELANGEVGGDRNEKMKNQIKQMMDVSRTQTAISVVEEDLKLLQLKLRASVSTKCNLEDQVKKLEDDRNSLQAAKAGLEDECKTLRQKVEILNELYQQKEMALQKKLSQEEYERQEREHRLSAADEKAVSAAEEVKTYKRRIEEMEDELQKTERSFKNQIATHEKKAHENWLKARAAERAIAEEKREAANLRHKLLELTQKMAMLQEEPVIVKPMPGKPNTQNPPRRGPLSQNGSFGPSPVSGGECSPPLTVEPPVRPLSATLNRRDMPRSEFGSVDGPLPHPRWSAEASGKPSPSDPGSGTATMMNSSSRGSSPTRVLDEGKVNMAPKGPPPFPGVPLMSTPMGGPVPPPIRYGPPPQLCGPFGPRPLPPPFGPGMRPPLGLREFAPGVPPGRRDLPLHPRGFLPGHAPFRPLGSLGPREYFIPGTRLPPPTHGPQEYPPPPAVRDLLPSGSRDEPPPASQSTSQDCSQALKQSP
Sequence of UniProt Q10469 (Q10469 whole entry): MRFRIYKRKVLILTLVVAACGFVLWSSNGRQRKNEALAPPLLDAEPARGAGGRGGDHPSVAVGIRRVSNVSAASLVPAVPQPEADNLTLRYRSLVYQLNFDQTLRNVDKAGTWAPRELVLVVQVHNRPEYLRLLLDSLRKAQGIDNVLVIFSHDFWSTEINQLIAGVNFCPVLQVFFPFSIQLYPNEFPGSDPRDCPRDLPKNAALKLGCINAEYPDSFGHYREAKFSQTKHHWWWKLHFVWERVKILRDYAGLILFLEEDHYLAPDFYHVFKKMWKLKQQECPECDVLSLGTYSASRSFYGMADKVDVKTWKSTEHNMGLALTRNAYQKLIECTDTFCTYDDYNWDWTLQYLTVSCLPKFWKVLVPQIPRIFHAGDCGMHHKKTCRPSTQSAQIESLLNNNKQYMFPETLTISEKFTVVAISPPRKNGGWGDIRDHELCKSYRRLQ
Sequence of UniProt Q9BPX6 (Q9BPX6 whole entry): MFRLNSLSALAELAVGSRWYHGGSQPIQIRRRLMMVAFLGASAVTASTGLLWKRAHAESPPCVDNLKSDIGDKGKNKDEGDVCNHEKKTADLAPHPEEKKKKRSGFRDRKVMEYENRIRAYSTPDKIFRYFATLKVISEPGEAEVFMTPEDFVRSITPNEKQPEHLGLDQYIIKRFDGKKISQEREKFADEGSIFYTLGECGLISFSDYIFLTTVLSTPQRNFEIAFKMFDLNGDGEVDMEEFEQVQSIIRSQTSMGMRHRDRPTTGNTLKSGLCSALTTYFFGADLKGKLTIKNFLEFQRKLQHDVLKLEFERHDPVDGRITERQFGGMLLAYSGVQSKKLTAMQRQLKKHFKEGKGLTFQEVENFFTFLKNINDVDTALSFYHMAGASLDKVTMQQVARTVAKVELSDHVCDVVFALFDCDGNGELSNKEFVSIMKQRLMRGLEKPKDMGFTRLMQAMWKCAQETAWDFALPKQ
Sequence of UniProt Q29983 (Q29983 whole entry): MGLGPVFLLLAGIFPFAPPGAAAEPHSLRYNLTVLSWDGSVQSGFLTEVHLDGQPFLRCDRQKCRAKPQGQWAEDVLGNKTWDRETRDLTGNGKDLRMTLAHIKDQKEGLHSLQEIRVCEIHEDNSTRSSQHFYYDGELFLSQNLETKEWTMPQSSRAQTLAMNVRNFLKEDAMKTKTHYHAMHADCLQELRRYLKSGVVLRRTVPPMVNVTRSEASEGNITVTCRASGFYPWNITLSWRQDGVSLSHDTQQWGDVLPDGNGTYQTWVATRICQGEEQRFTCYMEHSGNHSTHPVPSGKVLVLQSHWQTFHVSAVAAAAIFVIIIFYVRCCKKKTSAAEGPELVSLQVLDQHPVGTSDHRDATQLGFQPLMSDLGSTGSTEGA
Sequence of UniProt O14880 (O14880 whole entry): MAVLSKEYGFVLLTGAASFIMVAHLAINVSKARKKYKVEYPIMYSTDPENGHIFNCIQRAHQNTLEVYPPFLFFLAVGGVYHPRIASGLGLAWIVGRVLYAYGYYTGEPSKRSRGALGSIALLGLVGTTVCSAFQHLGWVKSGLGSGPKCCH
Sequence of UniProt Q6N075 (Q6N075 whole entry): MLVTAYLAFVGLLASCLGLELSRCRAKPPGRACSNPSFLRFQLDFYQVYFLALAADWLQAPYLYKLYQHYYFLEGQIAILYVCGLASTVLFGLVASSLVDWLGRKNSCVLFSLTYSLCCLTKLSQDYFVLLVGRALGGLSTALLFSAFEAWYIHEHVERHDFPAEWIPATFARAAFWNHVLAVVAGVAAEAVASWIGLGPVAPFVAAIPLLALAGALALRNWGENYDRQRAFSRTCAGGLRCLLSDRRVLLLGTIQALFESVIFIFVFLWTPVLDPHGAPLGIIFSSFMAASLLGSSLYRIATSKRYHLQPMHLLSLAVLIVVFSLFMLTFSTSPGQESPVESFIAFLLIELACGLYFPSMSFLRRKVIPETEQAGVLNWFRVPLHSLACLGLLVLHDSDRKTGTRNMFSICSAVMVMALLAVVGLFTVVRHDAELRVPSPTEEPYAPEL
Sequence of UniProt P10620 (P10620 whole entry): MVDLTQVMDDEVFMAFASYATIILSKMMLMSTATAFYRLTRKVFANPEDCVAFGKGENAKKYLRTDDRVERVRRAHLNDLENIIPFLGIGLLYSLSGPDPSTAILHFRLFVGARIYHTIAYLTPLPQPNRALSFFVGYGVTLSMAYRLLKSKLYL

Row | Target | thermal stability z-score (lipoamide; [1]) | thermal stability z-score (lipoamide; arsenate co-treatment: none) | thermal stability z-score (potassium arsenate)
1 | METTL16 (UniProt Q86W50) | -0.248 | -0.347 | -0.0708
2 | METTL21A (UniProt Q8WXB1) | 0.425 | -0.307 | 0.26
3 | MFAP1 (UniProt P55081) | 0.755 | 0.245 | 1.73
4 | MFF (UniProt Q9GZY8) | -0.338 | -0.0711 | 0.0903
5 | MFN1 (UniProt Q8IWA4) | -0.522 | -0.191 | 0.157
6 | MFN2 (UniProt O95140) | -0.0814 | -0.338 | 0.252
7 | MFSD4B (UniProt Q5TF39) | -0.227 | 0.265 | -0.129
8 | MFSD5 (UniProt Q6N075) | 0.0483 | 0.442 | 0.661
9 | MFSD12 (UniProt Q6NUT3) | -0.485 | -1.79 | 1.14
10 | MGAT1 (UniProt P26572) | -0.313 | -0.685 | -0.0516
11 | MGAT2 (UniProt Q10469) | -0.206 | -0.0594 | 0.24
12 | MGAT4B (UniProt Q9UQ53) | 0.713 | -0.264 | 0.26
13 | MGEA5 (UniProt O60502) | -0.365 | -0.157 | -0.187
14 | MGLL (UniProt Q99685) | 0.592 | 0.117 | -0.132
15 | MGME1 (UniProt Q9BQP7) | 0.201 | 0.117 | -0.00686
16 | MGRN1 (UniProt O60291) | -0.792 | -0.153 | -0.181

Row | Target | thermal stability z-score (lipoamide; [1]) | thermal stability z-score (lipoamide; arsenate co-treatment: none) | thermal stability z-score (potassium arsenate)
17 | MGST1 (UniProt P10620) | 0.304 | -0.147 | 0.892
18 | MGST3 (UniProt O14880) | 0.65 | 0.431 | 2.22
19 | MIA3 (UniProt Q5JRA6) | -3.32 | -2.72 | 1.39
20 | MIB1 (UniProt Q86YT6) | -0.621 | -0.586 | -1.05
21 | MICA (UniProt Q29983) | -1.72 | -3.33 | -0.775
22 | MICAL3 (UniProt Q7RTP6) | 0.231 | 0.334 | 0.0242
23 | MICALL1 (UniProt Q8N3F8) | -0.217 | 0.212 | -0.602
24 | MICALL2 (UniProt Q8IY33) | -0.157 | 0.00775 | -0.0438
25 | MICU1 (UniProt Q9BPX6) | -0.305 | -0.0396 | 0.746
26 | MICU2 (UniProt Q8IYU8) | -0.422 | -0.315 | 0.583
27 | MID1 (UniProt O15344) | -0.525 | -0.224 | -0.963
28 | MID1IP1 (UniProt Q9NPA3) | -0.135 | 0.206 | 0.151
29 | MIEF1 | -0.243 | -0.035 | -0.198
30 | MIEN1 (UniProt Q9BRT3) | 0.165 | -0.595 | 0.969
31 | MIER1 (UniProt Q8N108) | 1.22 | 1.38 | 0.0984
